pEC50: −log10 of the molar value.
How the values were obtained:
HBV = HBV Infection in HepG2-NTCP Cells (HBeAg AlphaLISA); type: cell-based; conditions: Hepatitis B virus, 192 h, read-out: Cellular EC50 (μM)
Description: HepG2-NTCP A3 cells were maintained in DMEM media supplemented with GlutaMAX™, 10% fetal bovine serum, 1% penicillin/streptomycin, and 5 μg/mL puromycin at 37° C. in a humidified atmosphere with 5% CO2 in a collagen-coated tissue culture flask.
HepG2-NTCP cells were seeded in 384 well plate containing 16,000 cells/well two days prior to the infection. On the day of infection, compounds were 3-fold serially diluted in DMSO and pre-incubated with HepG2-NTCP cells for two hours before purified HBV addition. HBV infection was carried out at 2000 GE/cell with 4% PEG, and the final concentration of DMSO is 0.5%. On day one post infection, HBV-containing media was aspirated, cells were washed once with PBS and then maintained in 2.5% DMSO containing media for the remainder of the assay.
Supernatants from infected HepG2-NTCP cells were collected at day 8 post infection, and the amount of viral antigen HBeAg was measured by HBeAg AlphaLISA detection kit (PerkinElmer) following the manufacturer's recommended protocol. Irrespective of readout, compound concentrations that reduce viral product accumulation in supernatants by 50% relative to DMSO controls (EC50) are reported. EC50 ranges are as follows: A<0.1 μM; B 0.1-1 μM; C>1 μM. A dash (-) indicates the compound was not tested.

NTCP = target: T1, NTCP (Homo sapiens, UniProt Q14973); experiment: HepG2-NTCP preS1 Binding Competition Assay; conditions: HepG2-NTCP cells pre-treated 2 hours, FITC-labeled myristoylated preS1 peptide co-incubated 30 minutes, cell-surface fluorescence; read-out: Cellular EC50
T1 construct: expressed in transfected cells; host or cells: HepG2-NTCP (A3 clone, kept under puromycin)
T1 sequence (Q14973 1-349): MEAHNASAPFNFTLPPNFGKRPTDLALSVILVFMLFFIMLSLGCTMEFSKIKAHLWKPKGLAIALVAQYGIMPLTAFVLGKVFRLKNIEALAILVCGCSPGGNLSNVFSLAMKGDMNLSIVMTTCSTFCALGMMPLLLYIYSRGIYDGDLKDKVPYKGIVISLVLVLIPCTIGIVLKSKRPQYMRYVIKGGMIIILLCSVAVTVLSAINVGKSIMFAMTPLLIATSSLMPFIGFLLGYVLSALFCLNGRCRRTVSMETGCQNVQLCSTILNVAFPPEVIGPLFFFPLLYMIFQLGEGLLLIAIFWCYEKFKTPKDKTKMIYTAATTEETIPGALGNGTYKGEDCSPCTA
Description: Myristoylated preS1 peptide (2-48 aa) conjugated to a C-terminal FITC tag was synthesized to evaluate preS1 binding to NTCP-expressing cells. HepG2-NTCP cells seeded in 384-wells were pre-treated with compounds for 2 hours prior to the addition of FITC-labeled preS1 peptide. After co-incubation for 30 minutes, unbound FITC-preS1 peptide was washed twice with PBS, and the fluorescence of preS1-FITC bound to cell surface was detected by Envision plate reader. EC50 ranges are as follows: A<0.1 μM; B 0.1-1 μM; C>1 μM. A dash (-) indicates the compound was not tested.

Structure (SMILES)	EC50 (HBV)	pEC50 (NTCP)
CC(C)Oc1cccc(COc2cc3c(cc2C#CC2(C(=O)O)CC2)S(=O)(=O)N(C)[C@H](C2CCCCC2)CN3c2ccccc2)c1 [Example 11, (R)-1-((3-cyclohexyl-7-((3-isopropoxybenzyl)oxy)-2-methyl-1,1-dioxido-5-phenyl-2,3,4,5-tetrahydrobenzo[f][1,2,5]thiadiazepin-8-yl)ethynyl)cyclopropane-1-carboxylic acid]	< 0.1 µM	6.00 to 7.00
CC(C)CS(=O)(=O)N[C@H](CCc1cc2c(cc1Cl)N(c1ccccc1)C[C@@H](C1CCCCC1)N(C)S2(=O)=O)C(=O)O [Example 29]	0.1 to 1 µM	> 7.00
CC(C)COC(=O)N[C@H](CCc1cc2c(cc1Cl)N(c1ccccc1)C[C@@H](C1CCCCC1)N(C)S2(=O)=O)C(=O)O [Example 15]	< 0.1 µM	6.00 to 7.00
CCCCNC(=O)C(=O)N[C@@H](CCc1cc2c(cc1Cl)N(c1ccccc1)C[C@@H](C1CCCCC1)N(C)S2(=O)=O)C(=O)O [Example 34]	< 0.1 µM	> 7.00
CN1[C@H](C2CCCCC2)CN(c2ccccc2)c2cc(Cl)c(CC[C@H](NC(=O)OCc3ccccc3)C(=O)O)cc2S1(=O)=O [Example 22]	0.1 to 1 µM	6.00 to 7.00
CCCCCOC(=O)N[C@@H](CCc1cc2c(cc1Cl)N(c1ccccc1)C[C@@H](C1CCCCC1)N(C)S2(=O)=O)C(=O)O [Example 16]	0.1 to 1 µM	6.00 to 7.00
CN1[C@H](C2CCCCC2)CN(c2ccccc2)c2cc(Cl)c(C#CC(C)(C)C(=O)O)cc2S1(=O)=O [Example 1, (R)-4-(7-chloro-3-cyclohexyl-2-methyl-1,1-dioxido-5-phenyl-2,3,4,5-tetrahydrobenzo[f][1,2,5]thiadiazepin-8-yl)-2,2-dimethylbut-3-ynoic acid]	< 0.1 µM	> 7.00
CN1[C@H](C2CCCCC2)CN(c2ccccc2)c2cc(Cl)c(CC[C@H](NC(=O)OC(C)(C)C)C(=O)O)cc2S1(=O)=O [Example 12, (S)-2-((tert-butoxycarbonyl)amino)-4-((R)-7-chloro-3-cyclohexyl-2-methyl-1,1-dioxido-5-phenyl-2,3,4,5-tetrahydrobenzo[f][1,2,5]thiadiazepin-8-yl)butanoic acid]	< 0.1 µM	> 7.00
CN1[C@H](C2CCCCC2)CN(c2ccccc2)c2cc(Cl)c(CCC3(C(=O)O)CC3)cc2S1(=O)=O [Example 6]	< 0.1 µM	6.00 to 7.00
CN1[C@H](C2CCCCC2)CN(c2ccccc2)c2cc(F)c(CCCC(=O)O)cc2S1(=O)=O [Example 7]	0.1 to 1 µM	6.00 to 7.00

— patent US20250304542A1, “Fused Heterobicyclic Antiviral Agents” (Enanta Pharmaceuticals, Inc., priority 2024, published 2025)
